Laboratory results published in US11827543B2, “Method for continuous supply of superoxide-containing peracetate oxidant solution” (Clean Chemistry, Inc., priority 2014, dated 2023).

Key:
[1] = system: bacteria; test: ATP concentration (LuminUltra metabolic ATP measurement) in oxidant-treated water; assay type: cell-based; conditions: produced water, Example 18, 0.30 mmol/L oxidant
[2] = ORP (oxidative-reductive potential) measurement of solutions and treated water; assay type: physicochemical; conditions: for ORP (mV vs SHE): early flowback water, Example 19, 1.7 mmol/L oxidant; for ORP: 29 mM, pH 7
Experimental: Example 9: Hydrogen Peroxide Residual Concentration and interference. A sodium peracetate oxidant solution was produced according to the procedure in Example 4 and diluted to 2800 mg/L (28.5 mmol/L) with either distilled water, for clean water conditions, or tap water containing about 0.18 mg/L copper, which served as an activation catalyst. Some samples were spiked with 30 or 60 mg/L (0.88 or 1.76 mmol/L, respectively) hydrogen peroxide from a 1000 mg/L stock solution. […] The temperature of the samples was maintained at 25±2° C. with a heated water bath. The ORP response was monitored over time to observe the impact of adding low concentrations of hydrogen peroxide. The pH was measured using a high sodium electrode (Oakton model 35805-05) with three point calibration and automatic temperature correction. The ORP (oxidative-reductive potential) of solutions was measured using an Oakton model 35805-15 ORP probe calibrated to the standard hydrogen electrode (SHE) using Thermo/Orion ORP standard 967901.
(§1) Water parameters were measured by a variety of methods. The pH was measured using a high sodium electrode (Oakton model 35805-05) with three point calibration and automatic temperature correction. The ORP (oxidative-reductive potential) of solutions was measured using an Oakton model 35805-15 ORP probe calibrated to the standard hydrogen electrode (SHE) using Thermo/Orion ORP standard 967901. Sodium ion concentration was measured using a Cole-Parmer ion selective electrode, EW-27504-30, with two point calibration of a sodium standard solution of NaCl. Chloride ion concentration was measured using a Cole-Parmer ion selective electrode, SC-27504-08, with two point calibration of a chloride standard solution of NaCl. All measurements using HACH methods were measured using a HACH DR900 colorimeter. Calcium, magnesium and total hardness concentrations were measured using HACH method 8030. Sulfate concentration was measured using HACH method 10248. Aluminum concentration was measured using HACH method 8012. Iron concentration was measured using HACH method 10249 modified with a longer reaction time to minimize interferences from organic impurities. Total suspended solids (TSS) concentration was measured using HACH method 8006 modified for smaller volumes. Turbidity was measured using HACH method 8237. ATP (adenosine triphosphate) concentration was measured using the LuminUltra 2nd Generation metabolic ATP measurement technology with the LuminUltra Quench Gone-Organic Modified sampling method, a PhotonMaster Luminometer and LumiCalc software. Acid producing bacteria (ABP) and sulfate reducing bacteria (SRB) cell culture concentrations were measured with standard 1 mL serial dilutions using Intertek APB and SRB culture media, 1% salinity.

[3] = pH of treated water; assay type: physicochemical
Experimental: as §1

[4] = Chlorine dioxide stock solution concentration over time (HACH DPD method); assay type: physicochemical; conditions: 2800 mg/L stock solution, room temperature, 7 days
Experimental: Chlorine dioxide stock solution preparation: One AQUA-Tab 20 G chlorine dioxide tablet (Beckart Environmental, Inc.) was dissolved in 32 oz (946 mL) of distilled water in a closed polyethylene container according to the product instructions. The yellow solution was allowed to sit for at least 1 hour before use. The chlorine dioxide concentration was measured before use using the HACH DPD method no. 10126 after diluting 0.330 mL of the prepared chlorine dioxide stock solution with distilled water to 200 mL in a volumetric flask. The initial chlorine dioxide concentration of the stock solution was measured to be 2800 mg/L. The concentration decreased slowly over time at room temperature, e.g., 6.4% decrease in 7 days.

[5] = produced water, Example 18, 0.30 mmol/L oxidant

[O][Cl+][O-] [chlorine dioxide, reference compound]
ATP (pg/mL), at 30 min CT [1]: 7.7 pg/mL | ATP reduction at 30 min CT [1]: 94.3% | ATP (pg/mL), at 15 min CT ([1]; untreated 135): 10.3 pg/mL | ORP (mV vs SHE) ([2]; contact time 3 minutes): 646 mV vs SHE | ORP (mV vs SHE) ([2]; contact time 13 minutes): 580 mV vs SHE | ORP (mV vs SHE) ([2]; contact time 35 minutes): 496 mV vs SHE | ORP (mV vs SHE) ([2]; contact time 90 minutes): 456 mV vs SHE | ORP (mV vs SHE), maximum [2, 5]: 818 mV vs SHE | ORP after slow decrease ([2]; produced water, Example 18, 0.30 mmol/L, in the following 17 minutes): 785 mV vs SHE | pH ([3]; early flowback water, Example 19, 1.7 mmol/L oxidant, contact time 3 minutes): 6.33 | pH ([3]; early flowback water, Example 19, 1.7 mmol/L oxidant, contact time 13 minutes): 6.32 | pH ([3]; early flowback water, Example 19, 1.7 mmol/L oxidant, contact time 35 minutes): 6.32 | pH ([3]; early flowback water, Example 19, 1.7 mmol/L oxidant, contact time 90 minutes): 6.36 | pH [3, 5]: 5.6 | decrease of concentration of stock solution [4]: 6.4%

OO [hydrogen peroxide, reference compound]
ORP [2]: about 0.5 V (SHE)

OCl [hypochlorous acid, reference compound]
ORP [2]: over 1.1 V (SHE)

OCl [sodium hypochlorite, reference compound]
ORP (constant) ([2]; diluted, pH 10.00±0.02, 25±2 °C): about 914 mV vs SHE
